Measured values published in article PMC10122656, “Siglec-6 mediates the uptake of extracellular vesicles through a noncanonical glycolipid binding pocket” (Nature Communications, 2023).
“And” between values parts separate entries of the source, which are not always exact repeats. Identical values can stand only once.

Key:
Assay in all cases: Cell assay (liposome/EV binding, flow cytometry)
Type in all cases: cell-based
Siglec-11 WT CHO cells = target: T1, Siglec-11 WT CHO cells (Homo sapiens, UniProt Q96RL6); conditions: Sig-11 WT; 3 mol% ganglioside liposomes; replicates
T1 construct: expressed in transfected cells
T1 sequence (Q96RL6 28-698): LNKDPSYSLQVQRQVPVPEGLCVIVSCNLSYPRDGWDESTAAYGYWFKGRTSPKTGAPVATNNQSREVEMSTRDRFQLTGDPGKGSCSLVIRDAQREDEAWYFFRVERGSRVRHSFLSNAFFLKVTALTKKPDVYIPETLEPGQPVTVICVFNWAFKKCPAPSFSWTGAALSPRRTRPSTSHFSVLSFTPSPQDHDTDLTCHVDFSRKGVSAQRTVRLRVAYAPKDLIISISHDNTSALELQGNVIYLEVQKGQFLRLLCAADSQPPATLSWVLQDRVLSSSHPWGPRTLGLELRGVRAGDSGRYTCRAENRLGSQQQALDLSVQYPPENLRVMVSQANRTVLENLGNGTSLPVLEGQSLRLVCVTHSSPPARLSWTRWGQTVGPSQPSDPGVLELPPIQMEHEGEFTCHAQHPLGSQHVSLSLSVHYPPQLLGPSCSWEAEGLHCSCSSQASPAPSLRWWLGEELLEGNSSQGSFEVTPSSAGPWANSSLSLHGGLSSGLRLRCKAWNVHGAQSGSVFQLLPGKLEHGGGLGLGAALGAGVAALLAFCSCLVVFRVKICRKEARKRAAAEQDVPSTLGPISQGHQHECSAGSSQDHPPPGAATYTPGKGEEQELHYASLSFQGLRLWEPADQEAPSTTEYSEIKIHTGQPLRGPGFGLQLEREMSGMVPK
Summary of the method: (§1)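 CHO cells expressing the indicated Siglec (wild-type or R-to-A mutant) were incubated 30 min at 37 °C with 50 µM fluorescent DSPC/cholesterol/PEG-DSPE liposomes (~130 nm, Siglec ligand-bearing) or 50 µg/mL EVs in DMEM F12 5% FBS. After washing and anti-Siglec staining on ice, binding was measured by flow cytometry on Siglec-positive gated cells.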

Siglec-8 WT CHO cells = target: T2, Siglec-8 WT CHO cells (Homo sapiens, UniProt Q9NYZ4); conditions: Sig-8 WT; 3 mol% ganglioside liposomes; replicates
T2 construct: expressed in transfected cells
Summary of the method: as §1

CD22 R120A CHO cells = target: T3, CD22 R120A CHO cells (Homo sapiens, UniProt P20273, R120A); conditions: 3 mol% ganglioside liposomes, replicates
T3 construct: expressed in transfected cells
T3 sequence (P20273 20-847 R120A): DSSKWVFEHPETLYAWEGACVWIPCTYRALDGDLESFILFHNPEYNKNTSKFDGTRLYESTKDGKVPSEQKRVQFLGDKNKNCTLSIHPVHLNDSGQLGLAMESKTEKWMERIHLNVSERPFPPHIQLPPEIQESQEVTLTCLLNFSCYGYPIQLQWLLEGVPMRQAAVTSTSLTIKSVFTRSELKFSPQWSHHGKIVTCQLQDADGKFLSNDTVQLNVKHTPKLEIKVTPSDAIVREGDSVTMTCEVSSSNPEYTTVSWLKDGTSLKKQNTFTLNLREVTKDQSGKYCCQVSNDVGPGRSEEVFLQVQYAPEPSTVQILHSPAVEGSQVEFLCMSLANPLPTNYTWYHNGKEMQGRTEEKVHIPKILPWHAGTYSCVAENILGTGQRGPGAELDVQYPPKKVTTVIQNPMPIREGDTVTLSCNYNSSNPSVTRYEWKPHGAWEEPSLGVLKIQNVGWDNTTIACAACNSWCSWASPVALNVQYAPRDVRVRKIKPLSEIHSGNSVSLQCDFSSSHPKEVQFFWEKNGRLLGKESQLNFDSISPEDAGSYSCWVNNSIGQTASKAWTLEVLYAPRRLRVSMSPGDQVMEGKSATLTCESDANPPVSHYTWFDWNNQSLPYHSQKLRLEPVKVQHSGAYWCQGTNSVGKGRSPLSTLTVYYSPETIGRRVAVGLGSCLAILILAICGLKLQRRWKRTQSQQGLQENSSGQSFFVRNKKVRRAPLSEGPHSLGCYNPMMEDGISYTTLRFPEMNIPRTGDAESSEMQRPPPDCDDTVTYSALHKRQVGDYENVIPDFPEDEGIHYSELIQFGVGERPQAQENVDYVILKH
Summary of the method: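 Extruded PEGylated DSPC/cholesterol liposomes (100 nm filter; 130 ± 35 nm) bearing Siglec ligand and AF647 lipids. Cells + 50 µM liposome or 50 µg/mL EV, DMEM F12/5% FBS, 37 °C, 30 min; washed; anti-Siglec 1:250, ice 30 min; flow, Siglec+ gate.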

T2 sequence (Q9NYZ4 17-499): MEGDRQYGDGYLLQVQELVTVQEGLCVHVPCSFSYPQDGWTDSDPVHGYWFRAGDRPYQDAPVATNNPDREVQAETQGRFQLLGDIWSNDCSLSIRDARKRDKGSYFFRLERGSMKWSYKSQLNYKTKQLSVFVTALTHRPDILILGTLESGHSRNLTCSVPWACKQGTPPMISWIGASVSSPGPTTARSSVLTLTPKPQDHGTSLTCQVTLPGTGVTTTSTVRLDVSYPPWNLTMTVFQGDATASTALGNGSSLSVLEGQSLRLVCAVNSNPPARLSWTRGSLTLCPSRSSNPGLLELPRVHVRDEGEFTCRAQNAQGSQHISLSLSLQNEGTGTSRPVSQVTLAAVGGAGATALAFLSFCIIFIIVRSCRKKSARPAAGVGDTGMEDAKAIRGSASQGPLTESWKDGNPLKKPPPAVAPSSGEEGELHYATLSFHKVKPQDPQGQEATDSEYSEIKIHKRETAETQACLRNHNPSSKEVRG

| Substance | log10(MFI AF647) of GLL relative to log10(MFI AF647) of the same GLL against UT CHO cells (Fig. 2a) (Siglec-11 WT CHO cells) | log10(MFI AF647) of GLL relative to log10(MFI AF647) of the same GLL against UT CHO cells (Fig. 2a) (Siglec-8 WT CHO cells) | log10(MFI AF647) of GLL relative to log10(MFI AF647) of the same GLL against UT CHO cells (Fig. 2a) (CD22 R120A CHO cells) |
| --- | --- | --- | --- |
| GD1a | -0.11 (2×) and -0.07 and -0.09 | -0.17 and -0.14 and -0.12 and -0.13 | 0.09 and 0.1 and 0.05 and 0.08 |
| GD1b | -0.1 (3×) and -0.09 | -0.17 (2×) and -0.15 (2×) | 0.03 and 0.02 and -0.01 and 0.01 |
| GD3 | -0.13 and -0.11 and -0.09 (2×) | -0.11 and -0.06 and -0.09 and -0.01 | 0.09 and 0.1 (2×) and 0.11 |
| GM1 | 0.11 and 0.12 and 0.14 and 0.13 | -0.02 (3×) and 0.04 | 0.06 and 0.04 and -0.02 and 0.03 |
| GM2 | -0.06 and -0.03 (2×) and -0.04 | -0.18 (2×) and -0.15 and -0.17 | 0.1 (2×) and 0.12 and 0.08 |
| GM3 | -0.1 and -0.09 and -0.11 and -0.12 | -0.22 and -0.18 and -0.2 and -0.17 | -0.15 and -0.16 and -0.17 and -0.18 |
| GM4 | -0.11 and -0.09 (2×) and -0.07 | -0.15 (2×) and -0.14 and -0.13 | 0.11 and 0.12 and 0.09 and 0.1 |
| GQ1b | -0.25 and -0.21 and -0.2 and -0.24 | -0.02 (2×) and -0.04 and 0.24 | -0.05 and -0.03 and -0.04 and -0.06 |
| GT1b | -0.17 and -0.15 and -0.13 (2×) | -0.21 and -0.22 and -0.23 and -0.19 | 0.05 and 0.04 (2×) and 0.06 |
